Several values for one entry are separate records, joined by “and”; a condition that tells them apart may be missing. Equal values may be shown once.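 Following 48 hours of exposure in 96-well plates, responses at five concentrations were used to interpolate endpoints linearly. GI50 marks 50% less growth. Definition used: TGI = concentration required for complete inhibition of growth.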
Legend:
Assay in all cases: growth of human tumour cells (NCI), 48 h
SF-268 CNS = test system: SF-268 CNS
COLO 205 colon = test system: COLO 205 colon
PC-3 prostate = test system: PC-3 prostate
HCC-2998 colon = test system: HCC-2998 colon
OVCAR-8 ovarian = test system: OVCAR-8 ovarian
SN12C renal = test system: SN12C renal
HCT-116 colon = test system: HCT-116 colon
MOLT-4 leukemia = test system: MOLT-4 leukemia
ACHN renal = test system: ACHN renal
HOP-62 NSCLC = test system: HOP-62 NSCLC

Row | SMILES | GI50 (SF-268 CNS) | TGI (SF-268 CNS) | GI50 (COLO 205 colon) | TGI (COLO 205 colon) | GI50 (PC-3 prostate) | TGI (PC-3 prostate) | GI50 (HCC-2998 colon) | TGI (HCC-2998 colon) | GI50 (OVCAR-8 ovarian) | TGI (OVCAR-8 ovarian) | GI50 (SN12C renal) | TGI (SN12C renal) | GI50 (HCT-116 colon) | TGI (HCT-116 colon) | GI50 (MOLT-4 leukemia) | TGI (MOLT-4 leukemia) | GI50 (ACHN renal) | TGI (ACHN renal) | GI50 (HOP-62 NSCLC) | TGI (HOP-62 NSCLC)
1 | COC1CCC(N2C(=O)CNc3ncc(-c4ccc(C(C)(C)O)nc4)nc32)CC1 (stereo not given) | 1.97 µM and 0.356 µM | > 41.5 µM | 1.03 µM and 0.176 µM | > 8.63 µM and 9.06 µM | 0.322 µM and 0.108 µM | 4.2 µM and > 33.5 µM | 1.98 µM and 0.306 µM | > 39.2 µM | 1.27 µM and 0.436 µM | > 35.2 µM | 0.794 µM and 0.315 µM | > 43.2 µM | 2.07 µM and 0.809 µM | > 10 µM and 13.8 µM | 1.51 µM and 0.437 µM | > 100 µM | 1.07 µM and 0.205 µM | > 100 µM | 1.92 µM and 0.437 µM | > 10 µM and 14.5 µM
2 | O=CN/C=C/c1cc(O)ccc1O |  | 37.5 µM |  | 26.5 µM |  | > 100 µM |  | > 100 µM |  | 43 µM |  | 31.3 µM |  | 29.2 µM |  | > 63.4 µM |  | 28.9 µM |  | > 100 µM
3 | Cc1ccc(C(=O)/C(=C/c2ccc([N+](=O)[O-])cc2)SCc2ccc(Cl)cc2)cc1 | 2.44 µM | 15.8 µM | 3.33 µM | 20.7 µM | 1.12 µM | 3.49 µM | 1.67 µM | 3.37 µM | 1.86 µM | 5.64 µM | 1.83 µM | 4.68 µM | 0.317 µM | 1.36 µM | 0.471 µM | > 100 µM | 1.69 µM | 3.13 µM | 29.7 µM | > 100 µM
4 | NC(=O)c1sc(-n2cnc3ccccc32)cc1OCc1ccccc1Br | 4.98 µM | > 25 µM | 1.58 µM | 23.2 µM | 10.3 µM | > 25 µM | 6.38 µM | > 25 µM | 4.83 µM | 23.5 µM | 14.2 µM | > 25 µM | 2.61 µM | > 25 µM | 3.56 µM | > 25 µM | 15.8 µM | > 25 µM | 3.67 µM | > 25 µM
5 | O=C1CC(c2ccc3c(c2)OCO3)Nc2ccccc21 (stereo not given) | 10.4 µM | 35.6 µM | 16.5 µM | 37.2 µM | 3.83 µM | 36.6 µM | 15.8 µM | 30.4 µM | 14.4 µM | 63.3 µM | 6.28 µM | 23 µM | 10.2 µM | 23.9 µM | 12.8 µM | 64.2 µM | 7.22 µM | > 87.4 µM | 14.2 µM | 86 µM
6 | NC(Cc1c[nH]c2c(O)cccc12)C(=O)O (stereo not given) | > 100 µM | > 100 µM | > 100 µM | > 100 µM | > 100 µM | > 100 µM | > 100 µM | > 100 µM | > 100 µM | > 100 µM | > 100 µM | > 100 µM | > 100 µM | > 100 µM | > 100 µM | > 100 µM | > 100 µM | > 100 µM | > 100 µM | > 100 µM
7 | CSc1nc2c(c(=O)[nH]1)N=C1c3ccccc3C(=O)C1C(c1ccccc1)N2 (stereo not given) | 4.55 µM | > 100 µM | 3.53 µM | > 100 µM | 3.64 µM | > 100 µM | 6.75 µM | > 100 µM | 19.1 µM | > 100 µM | 6.39 µM | > 100 µM | 4.21 µM | > 100 µM | 5.24 µM | > 100 µM | 3.73 µM | > 100 µM | 5.37 µM | > 100 µM
8 | COc1cc(-c2nn(-c3ccc(NC(=O)c4ccc(Cl)c(C(F)(F)F)c4)cc3)cc2-c2ccncc2)ccc1Cl | 4.03 µM | > 100 µM | 2.05 µM | 4.37 µM | 3.04 µM | > 100 µM | 3.22 µM | > 100 µM | 5.43 µM | > 100 µM | 4.64 µM | > 100 µM | 2.81 µM | > 58.2 µM | 2.63 µM | 8.06 µM | 3.35 µM | > 100 µM | 2.07 µM | 7.07 µM
9 | O=C(Nc1ccccc1)NS(=O)(=O)c1ccc(-n2nc3c(c2-c2cccs2)Cc2ccccc2-3)cc1 | 26 µM | > 100 µM | 44 µM | > 100 µM | 10.4 µM | > 100 µM | 15.3 µM | 31.8 µM | 28.3 µM | > 100 µM | 19.9 µM | 64.2 µM | 9.13 µM | 21.3 µM | 15.5 µM | > 100 µM | 17.6 µM | 38 µM | 18.1 µM | 47 µM
10 | OCc1ccc(N2CCC2c2ccc(F)cc2)cc1Cl (stereo not given) | 35 µM | > 100 µM | 3.44 µM | 15.3 µM | 21 µM | 67.1 µM | 17.5 µM | 46 µM | 23.6 µM | > 100 µM | 18.2 µM | > 63.8 µM | 0.481 µM | > 38.2 µM | 25 µM | 64.6 µM | 30.8 µM | > 100 µM | 10.1 µM | > 68 µM

— PubChem BioAssay (NCI)
